Measured values: patent US10106588B2, “Nucleic acids encoding peptides for treating wounds, anti-angiogenic compounds and uses thereof” (Trustees of Tufts College, priority 2008, dated 2018)
Where no end group is shown, it is not given here.

How the values were obtained:
[1] = tested on: Human Microvascular Endothelial Cells (HMVEC); assay: in vitro angiogenesis assay: tubule formation from HMVEC in Matrigel; format: cell-based; conditions: for induction of angiogenesis in vitro: general statement, no concentration
Procedure: FIG. 1 is an illustration of a comparison 0.5 nM of the peptide of SEQ ID NO: 1 (“UN1”) to a serum control sample in the formation of tubules from Human Microvascular Endothelial Cells (HMVEC) in Matrigel™ after 3 hours.
FIG. 2 is a graph illustrating a measure of angiogenesis in terms of total process length in Human Microvascular Endothelial Cells (HMVEC) with 0.4 nM and 250 nM of the SEQ ID NO: 1 (“UN1”).
FIG. 3 is a graph illustrating a measure of angiogenesis in terms of total process length in Human Microvascular Endothelial Cells (HMVEC) with 0.4 nM and 250 nM of the peptide of SEQ ID NO: 3 (“UN3”).
(§1) Each of the three peptide sequences were then analyzed for activity via (1) in vitro angiogenesis assays where blood vessel formation in vitro was quantified; (2) in vitro response to injury analyses, including quantitative analysis, of migration in response to injury; and (3) in vitro quantitation of cell proliferation assays. The results of experiments performed are illustrated in FIGS. 1 to 4.
The peptide (SEQ. ID NO: 1 (“UN1”)) was compared to each of VEGF 4 ng/ml and Serum Control in an in vitro angiogenesis analysis.
The peptide (SEQ ID NO: 3 (“UN3”)) was also compared to VEGF and Serum Control in in vitro angiogenesis analysis.

[2] = tested on: Normal Human Epithelial Keratinocyte (NHEK); assay: in vitro response to injury: keratinocyte migration / relative wound closure; format: cell-based; conditions: for relative wound closure via NHEK migration: 0.5 nM of each peptide, compared to control (FIG. 4); for keratinocyte migration in response to injury in vitro: general statement, no concentration
Procedure: FIG. 4 is a graph illustrating a measure of relative wound closure via Normal Human Epithelial Keratinocyte (NHEK) migration after exposure to 0.5 nM of each of the peptides of SEQ ID NOs: 1, 2, and 3 (“UN1,” “UN2,” and “UN3” respectively).
as §1
In addition, each of the three peptides of the invention were compared with regard to adult normal human epithelial keratinocyte migration.

Which “formation of tubules (number and lengths of processes or tubules), in vitro angiogenesis” value ([1]; 0.5 nM peptide, HMVEC in Matrigel, after 3 hours, versus serum control (FIG. 1)) does the source give for ELLESYIDR [UN1] here?
Its value is “significant induction of in vitro angiogenesis”.

And the “induction of angiogenesis in vitro” value [1]?
Its value is “induce angiogenesis in vitro”.

What about the tubule formation ([1]; in comparison to Serum Control and VEGF 4 ng/ml (FIGS. 1 and 2)) of the same sequence?
Its tubule formation is “induced significant tubule formation”.

And the process length ([1]; in comparison to Serum Control and VEGF 4 ng/ml, 0.4 nM and 250 nM (FIG. 2))?
The process length was “significant tubule formation and process length”.

And the “relative wound closure via NHEK migration” value [2]?
The value was “significantly better”.

And the “keratinocyte migration in response to injury in vitro” value [2]?
The value was “promote keratinocyte migrations”.

Which “induction of angiogenesis in vitro” value [1] does the source give for ELLESYIDRPTATSEYQTFFNPR [UN3] here?
Its value is “induce angiogenesis in vitro”.

What about the process length ([1]; in comparison to VEGF, peptide at 250 nM (FIG. 3)) of the same sequence?
The process length was “significant increase in process length”.

And the process length ([1]; in comparison with Serum Control, 0.4 nM and 250 nM (FIG. 3))?
The process length was “significant increase in process length”.

What about the “relative wound closure via NHEK migration” value [2] of the same sequence?
The value was “significantly better”.

And the “keratinocyte migration in response to injury in vitro” value [2]?
The value was “promote keratinocyte migrations”.

Which “relative wound closure via NHEK migration” value [2] does the source give for TATSEYQTFFNPR [UN2] here?
The value was “significantly better”.
